The values that follow are results of earlier work, collected in patent US7977378B1, “Compositions and methods for enhancing weight-loss by cyclical administration of compounds” (priority 2007, dated 2011).

The conditions of series [1]: up to 200 mg kg-1.
In the next series the test system is adipocyte. To be noted: in vitro.
Series [2] has as its system contractile responses evoked by phenylephrine and high K+. The conditions noted are these: 4 approximately 12 microg/mL.
For series [3], the system named is hepatic glucose-6-phosphatase.
A further series relates to hepatic TG. The conditions noted are these: 60 mg/kg·day.
Series [4] deals with endothelium-intact rat aorta. To be noted: equal potency.
The test system of series [5] is contractile effect of noradrenaline. The conditions noted are these: 2×10(−6) and 1×10(−7) M.
Series [6] relates to guinea-pig isolated right atria.

On to `COc1ccc([C@@H]2CC(=O)c3c(O)cc(O)cc3O2)cc1O` [hesperitin], for which the “Effect on intestinal transit” value in [1] is recorded as “no effect”.
Turning to catechin, in series [1], the “Effect on intestinal transit” value is given as “no effect”.
Regarding TNF-alpha, the Adipocyte apoptosis result in the series on adipocyte is recorded as “induced”.
In the case of (−)-epigallocatechin gallate [EGCG], the Adipocyte apoptosis entry with adipocyte was “induced”. Also, the “Effect on contractile responses evoked by phenylephrine and high K+” value in [2] is recorded as “did not affect”.
In the case of `O=C(/C=C/c1ccc(O)c(O)c1)O[C@@H]1C[C@](O)(C(=O)O)C[C@@H](O)[C@H]1O` [chlorogenic acid], the “Inhibition of hepatic glucose-6-phosphatase” value in series [3] is listed as “selectively inhibit”. Also, the “Level of hepatic TG” value in the series on hepatic TG is given as “significantly reduced”. For the same molecule, in the series with 3T3-L1 preadipocytes, the “Effect on cell cycle” value is given as “cell cycle arrest in the G1 phase”.
Regarding `C[n+]1c2n(c(=O)c3ccccc31)CCc1c-2[nH]c2ccccc12` [dehydroevodiamine], in series [4], the Vasodilatory effect entry is “vasodilatory effect”.
Consider `O=C(O)/C=C/c1ccccc1O` [o-coumaric acid], for which the “Effect on cell cycle” value with 3T3-L1 preadipocytes is reported as “cell cycle arrest in the G1 phase”.
Turning to `C=CCSSC=CC[S+]([O-])CC=C` (mixture of isomers) [ajoene], the Adipocyte apoptosis result in the series on adipocyte was “induced”.
Turning to `O=C1C[C@@H](c2ccc(O)cc2)Oc2cc(O)cc(O)c21` [naringenin], the “Contractile effect of noradrenaline” value in [5] is “increased”.
For the molecule `Cn1c(=O)c2c(ncn2C)n(C)c1=O` [caffeine], under “after ingestion”, the “Increase of energy expenditure” value is listed as 13%, the “Increase of oxidative FFA disposal” value is 44%, the “Share of lipids oxidized” value was 24% and the “Share of lipids recycled” value is on record as 76%. Besides, the “Oxidative FFA disposal” value (after ingestion (from 236+/−21)) was 340+/−16 micro mol/min. In addition, the “Non-oxidative FFA disposal” value (after ingestion (from 455+/−66)) was 1054+/−242 micro mol/min. For the same molecule, the “Increase of non-oxidative FFA disposal” value (after ingestion, P<0.01) is given as 2.3 fold. The “Increase of lipid turnover” value (steady state (last hour of the test) after ingestion, P<0.005) is listed as 2 fold.
In the case of `O=C(O)/C=C/c1cccc(O)c1` [m-coumaric acid], the “Effect on cell cycle” value in the series with 3T3-L1 preadipocytes was “cell cycle arrest in the G1 phase”.
On to evodiamine, for which, in the series with bovine adrenal medulla, the Catecholamine secretion entry is given as “stimulate” and the “Insensitivity of the cells to acetylcholine or high K+ stimulation” value is reported as “reversed insensitivity”. Also, the “Inotropic and chronotropic effects” value in series [6] was “positive inotropic and chronotropic effects”. In series [4], the Vasodilatory effect entry is listed as “vasodilatory effect”.
